Reference: publication PMC6373292 (Pharmaceutical Research, 2019)
pEC50: −log10 of the molar value. Entries after “also recorded” stand apart in the source; their conditions may differ.

Legend:
[1] = system: regional subcutaneous blood flow; assay: Xenon-133 washout after injection into the neck of pigs; assay type: in vivo, pig; conditions: vehicle without insulin aspart, niacinamide 170 mM (n=21), prostaglandin E1 4 μg/ml (n=8), mean (±SD), saline –0.71
Description: For each experiment, an insulin aspart containing vehicle was injected on one side of a pig, while the same vehicle without insulin aspart was injected into the other side. Prostaglandin E1 was included as a positive control. A gamma sensor was mounted over each injection site to measure the decay in Xe-133 signal. […] Regression line slopes in the 0–15 min interval were compared using one-way analysis of variance (ANOVA).

skin perfusion [2] = assay: Laser speckle contrast analysis (LASCA) of skin perfusion in pigs; assay type: in vivo, pig; conditions: anesthetized pigs, intradermal injection in neck, niacinamide 170 mM, 1-methyl-niacinamide 170 mM, prostaglandin E1 10 μg/ml, 0–15 min, n=4
Description: Formulations of prostaglandin E1 (10 μg/ml), niacinamide (170 mM) or saline were injected intradermally in the neck area of anesthetized pigs. A PeriCam PSI system (Perimed, Sweden) was used to record one image per second for approximately 15 min. Perfusion units per min were compared using one-way ANOVA.
Niacinamide increases subcutaneous blood flow in pigs
Video: Representative LASCA perfusion experiment.
LASCA images were recorded following intradermal injection of saline, prostaglandin E1 and niacinamide formulations into the neck area of anesthetized pigs. Saline (170 mM NaCl, 10 mM phosphate, pH 7.4) was injected into region 1 (blue) and 6 (black), 10 µg/ml prostaglandin E1 (170 mM NaCl, 10 mM phosphate, pH 7.4) was injected into region 2 (red), 170 mM niacinamide (85 mM NaCl, 10 mM phosphate, pH 7.4) was […]
was necessary). Compound x (region 4, dark red) was an additional compound studied for vasodilation but is not included in the present analysis.
(1 picture or pasted object on this page, not shown here)

skin perfusion [3] = assay: Laser Doppler imaging (LDI) of skin perfusion in pigs; assay type: in vivo, pig; conditions: anesthetized pigs, subcutaneous injection at 3 mm depth, niacinamide 170 mM, prostaglandin E1 10 μg/ml, baseline corrected, n=4
Description: LDI (moorLDI2-IR, Moor Instruments, UK) was used to record a series of images (approximately one image per 3.5 min for approximately 30 min) following a protocol in anesthetized pigs similar to the one used for LASCA. Due to the increased skin penetration depth of the LDI system, subcutaneous injections were performed at a 3 mm depth using a 32G needle. Injections were performed in areas that could be scanned in the same image.

[4] = system: porcine subcutaneous arteries; assay: Ex vivo vasorelaxation of U46619-preconstricted arteries (wire myograph); parameters: species or system pig; conditions: isolated porcine subcutaneous arteries preconstricted with U46619 (1 μM); for Effect on vascular tone (vasorelaxation): niacinamide at 200 mM, 1-methyl-niacinamide cumulative concentrations, two animals
Description: Vessels were cut into 1.5 mm cylindrical segments, threaded onto two 40 μm diameter stainless steel wires and mounted on a Mulvany-Halpern myograph (Danish Myograph Technology, A/S). […] Contractile force was recorded via a PowerLab unit and Labchart software (AD Instruments). Vessels were pre-stretched in calcium-free PSS to a lumen diameter of 0.9 × L100, where L100 is an estimate of the diameter of the vessel under a passive transmural pressure of 100 mmHg. This was performed using the normalization module in LabChart7.

[5] = Disappearance of niacinamide and 1-methyl-niacinamide from subcutaneous injection depots in pigs (tissue sampling, LC-MS/MS); conditions: 170 mM, 50 μl, LC-MS/MS of tissue homogenate, n=9
Description: Pigs (70–90 kg) were anesthetized using Zoletil mixture (1 mg/10 kg; Virbac, Denmark) with intravenous supplement of propolipid (Fresenius Kabi, Sweden). […] Tissue samples measuring ~2 x 2 cm were excised at 0 min (acute), 2, 5, 15 or 60 min after injection and immediately frozen in 2-methyl-butane. […] Following euthanasia by overdose of pentobarbital (Lundbeck, Denmark), tissue samples measuring ~10 x 10 cm were excised and injected to obtain ex vivo 0 min (acute) and 60 min depots.
Tissue samples were cut into smaller blocks, thawed and diluted with phosphate buffer (180 mM; pH 7.4) at a ratio of 3 ml to 1 g of tissue. Tissue was homogenized with two cycles (one cycle consisting of 10 sec homogenization, 60 sec pause, 10 sec homogenization) at 8800 rpm (Precellys Evolution homogenizer, Bertin Instruments, France) or until the sample was considered homogenized.
Protein was precipitated from the tissue homogenate by adding three volumes of acetonitrile. Samples were centrifuged for 30 min at 4°C and the supernatants analyzed on a QTRAP® Triple Quadrupole coupled with an Acquity liquid chromatography system (Waters, USA).

pEC50 ([4]; Sus scrofa, sc, cumulative 1 μM–200 mM, PSS 37°C pH 7.4, six animals)	Structure (SMILES)	Xe-133 washout regression line slope, 0–15 min interval [1]	Skin perfusion by LASCA compared with saline (skin perfusion [2])	Skin perfusion by LDI compared with saline (skin perfusion [3])	Effect on vascular tone (vasorelaxation) [4]	Amount remaining in subcutaneous depot 60 min post-injection [5]
–	CCCCC[C@H](O)/C=C/[C@H]1[C@H](O)CC(=O)[C@@H]1CCCCCCC(=O)O [prostaglandin E1]	–2.47 % per min	clear increase in skin perfusion	increased skin perfusion	–	–
–	C[n+]1cccc(C(N)=O)c1 [1-methyl-niacinamide]	–	did not increase the LASCA signal	–	no substantial effect on vascular tone; also recorded: vasorelaxation was not detected	–
1.95	NC(=O)c1cccnc1 [niacinamide]	–1.24 % per min	intermediate increase	increased skin perfusion	maximal vasorelaxation	decreased to amounts comparable to the blank control
